# From publication PMC3927474, “Whole body synthesis rates of DHA from α-linolenic acid are greater than brain DHA accretion and uptake rates in adult rats” (Journal of Lipid Research, 2014)
# Experiments:
# Assay type in all cases: in vivo, rat
# [1] = tested on: uncoupling protein 2; test: Brain gene expression (TLDA qPCR); conditions: 15 wk diet; control diet = 1
# Procedure: (§1) RNA was extracted from the flash-frozen half brains of the 15 week postweaning rats. The brain was briefly thawed and dissected to isolate the brainstem, cerebellum, cortex, hippocampus, striatum, and the rest of the brain. RNA was extracted from the brain regions using Trizol reagent (Ambion; Life Technologies, Burlington, ON, Canada) according to the manufacturer's protocol. […] Chloroform was added to the Trizol reagent at a ratio of 1:5 (chloroform:Trizol reagent) and the solution was mixed and incubated at room temperature. The solution was then centrifuged at 12,000 g for 15 min at 4°C. […] The samples were then centrifuged at 12,000 g for 10 min at 4°C to precipitate the RNA pellet. […] The pellet was allowed to air dry, and was then dissolved in RNase-free water. A Nanodrop 1000 (NanoDrop Technologies Inc., Wilmington, DE) was used to determine the concentration and purity of each sample by measuring absorbance at 260 and 280 nm. Each sample was aliquoted to make 1 μg of RNA per 10 μl of sample and stored at -80°C. A high-capacity cDNA reverse transcription kit (Applied Biosystems, Burlington, ON, Canada) was used to reverse transcribe 1 μg of RNA according to the manufacturer's instructions. Newly synthesized cDNA was stored at -20°C until the following day when it was loaded onto TaqMan low density array (TLDA) plates. Quantitative real-time PCR was performed using TLDA (Applied Biosystems) on the 7900HT real-time PCR system (Applied Biosystems). cDNA (50 ng) was diluted with water to make a volume of 50 μl and mixed with 50 μl of TaqMan Universal PCR Master Mix (Applied Biosystems). The mixture was then loaded onto a customized preconfigured 384-well TLDA plate according to the manufacturer's protocol. TaqMan gene expression assays were used to assess 21 genes that were previously reported to be differentially expressed with n-3 deprivation. […] All genes were normalized to phosphoglycerate kinase 1. Similar results were found when normalizing to β-actin or 18S rRNA.
# [2] = tested on: retnoid X receptor α; test: Brain gene expression (TLDA qPCR); conditions: 15 wk diet; control diet = 1
# Procedure: as §1
# [3] = tested on: prostaglandin E synthase 3; test: Brain gene expression (TLDA qPCR); conditions: 15 wk diet; control diet = 1
# Procedure: as §1
# [4] = tested on: retinoic acid receptor α; test: Brain gene expression (TLDA qPCR); conditions: 15 wk diet; control diet = 1
# Procedure: as §1
# [5] = Brain DHA uptake study: ^14C-DHA infusion; conditions: for Brain DHA uptake rate: 5 min ^14C-DHA infusion, 15 wk diet
# Procedure: At 15 weeks postweaning, a surgery was performed to implant a catheter into the jugular vein (described above). […] After 5 min of ^14C-DHA infusion rats were euthanized by high-energy head-focused microwave fixation (13.5 kW for 1.6 s). The brains were then removed, dissected sagittally and stored at −80°C until analysis.
# A known portion of the plasma TLE was then added to a scintillation vial with 5 ml of scintillation cocktail (GE Healthcare Life Sciences, Baie d'Urfe, QC, Canada). Radioactivity was measured using liquid scintillation counting to determine the plasma AUC for radioactivity. For plasma samples drawn at time 0 s of the infusion, the unesterified lipids were isolated by TLC and quantified using GC-FID (described above).
# Radioactivity was quantified by a Packard TRI-CARB2900TR liquid scintillation analyzer (Packard, Meriden, CT) with a detector efficiency of 48.8%. Radioactivity was expressed in disintegrations per minute; then converted to nCi.
# Brain hemispheres were homogenized and lipids extracted as described above. A known portion of the TLE was then added to a scintillation tube with 5 ml of scintillation cocktail. Radioactivity was quantified using liquid scintillation counting.
# To determine the brain DHA uptake rate, the incorporation coefficient for DHA from the unesterified plasma pool into the brain total lipid pool is ([26]):(Eq. 5) k^*=cbr*(T)/∫0Tcpl*dt where cbr*(T) is the total brain radioactivity at the end of the infusion and ∫0Tcpl*dt is the plasma radioactivity AUC.
# Multiplying the incorporation coefficient by the concentration of plasma unesterified DHA (cpl) allows for the determination of the brain DHA uptake rate:(Eq. 6) Jin=k^*cpl
# [6] = Body weight and food intake, balance study; conditions: 15 wk diet
# Procedure: The remaining pups were weaned, singly housed, continued on the diet of their respective dam for 15 weeks, and were allocated to either the balance study (n = 11), the steady-state infusion study (n = 4), or the brain DHA uptake study (n = 3). For the balance study, the rats were weighed, food intake was determined, and uneaten food was replaced with fresh food on a weekly basis. Rats were euthanized by CO2 asphyxiation. Brains were removed and dissected sagittally. Carcasses and one half brain per rat were stored immediately at −80°C (to be later analyzed for lipid content). The other half brain was flash-frozen with 2-methylbutane on dry ice, and then stored at −80°C until analyzed for mRNA expression. The PUFA content in the brains and bodies of these rats after the 15 week feeding period was compared with the baseline PUFA content (described above) to determine PUFA accretion (equation 1, described below). For the steady-state infusion study and the brain DHA uptake study, a jugular vein catheter was surgically implanted into the rats. After allowing a 24 h recovery, rats were infused with ^2H14-ALA or ^14C-DHA, respectively (described below). The ^2H14-ALA infusion was used to determine DHA synthesis rates following a previously published method ([24]) and the ^14C-DHA infusion was utilized to measure the brain DHA uptake rate by following previously published methods ([26]).
Compound,Brainstem gene expression: UCP2 [1] [RQ],Cerebellum gene expression: UCP2 [1] [RQ],Cortex gene expression: UCP2 [1] [RQ],Hippocampus gene expression: UCP2 [1] [RQ],Rest of brain gene expression: UCP2 [1] [RQ],Striatum gene expression: UCP2 [1] [RQ],Brainstem gene expression: RXRa [2] [RQ],Cerebellum gene expression: RXRa [2] [RQ],Cortex gene expression: RXR a [2] [RQ],Hippocampus gene expression: RXR a [2] [RQ],Rest of brain gene expression: RXR a [2] [RQ],Striatum gene expression: RXRa [2] [RQ],Brainstem gene expression: PGES3 [3] [RQ],Cerebellum gene expression: PGES3 [3] [RQ],Cortex gene expression: PGES3 [3] [RQ],Hippocampus gene expression: PGES3 [3] [RQ],Rest of brain gene expression: PGES3 [3] [RQ],Striatum gene expression: PGES3 [3] [RQ],Brainstem gene expression: RARa [4] [RQ],Cerebellum gene expression: RARa [4] [RQ],further results
"CC/C=C\C/C=C\C/C=C\CCCCCCCC(=O)O [ALA, α-linolenic acid]",1.05,1.17,1.04,1.26,0.97,1.09,0.99,1.15,1.02,1.08,1.05,1.14,1.14,1.09,0.91,1.00,0.99,0.95,1.00,1.07,Cortex gene expression: RAR a [4]: 1.03 RQ; Hippocampus gene expression: RAR a [4]: 0.96 RQ; Rest of brain gene expression: RAR a [4]: 0.91 RQ; Striatum gene expression: RARa [4]: 0.93 RQ; Brain DHA uptake rate [5]: 467.6 ± 93.7 nmol/day; Brain DHA uptake rate ([5]; listed as ALA diet): 468 nmol/day; Mean body weight at 15 weeks [6]: 673 ± 25 g
"CC/C=C\C/C=C\C/C=C\C/C=C\C/C=C\C/C=C\CCC(=O)O [DHA, Docosahexaenoic acid]",1.08,0.87,1.02,1.07,1.20,1.00,1.02,0.98,1.03,1.10,1.17,1.02,1.10,0.97,1.07,1.11,1.14,0.92,1.52,1.08,"Cortex gene expression: RAR a [4]: 1.20 RQ; Hippocampus gene expression: RAR a [4]: 0.97 RQ; Rest of brain gene expression: RAR a [4]: 1.09 RQ; Striatum gene expression: RARa [4]: 0.93 RQ; Brain DHA uptake rate [5]: 858.6 ± 74.8 nmol/day; Uptake rate of DHA into the brain, DHA-fed relative to ALA-fed rats ([5]; rat, in vivo): ~2 fold; Mean body weight at 15 weeks [6]: 724 ± 18 g"
